The term inhibition denotes the relative decrease from the control value, in per cent. As usually defined, the Inhibition is the relative decrease from the control value, in per cent. A high value points to a response far below the control.

The target of one assay is T1, H⁺/K⁺ ATPase (Oryctolagus cuniculus, UniProt P27112).
T1 construct: Rabbit gastric glands are isolated from gastric mucosa from the corpus region of the stomach; from tissue; host or cells: rabbit isolated gastric glands (gastric mucosa, corpus region of the stomach)
The assay can be described thus: inhibition of 14C-aminopyrine uptake in rabbit isolated gastric glands stimulated by DBcAMP or high K+. It is filed as cell-based. The settings on record: % inhibition of the maximum response to the secretagogue; for inhibition at 10 µM: at 10⁻⁵M. As for the experimental part:
Compounds of formula I were also tested for anti-secretory activity by their ability to inhibit the highly specific proton transporting enzyme H⁺/K⁺ ATPase.
Potential H⁺/K⁺ ATPase inhibitors were evaluated by a technique involving the measurement of aminopyrine accumulation in rabbit isolated gastric glands. Aminopyrine accumulates in acid-secreting cells; therefore, uptake of aminopyrine is increased by secretagogues and an inhibitor of acid secretion will reduce the response to one or more secretagogues depending upon its site of action. […] The following test procedure is used: Rabbit gastric glands are isolated from gastric mucosa from the corpus region of the stomach by a method based on one described by Berglindh T., Obrink K.J., Acta Physiol. Scand.
Results are expressed as the % inhibition of the maximum response to the secretagogue induced by the test compound. An inhibitor of H⁺/K⁺ ATPase would be expected to reduce the response to both secretagogues.

A further assay relates to stress-induced erosion. Briefly: stress-induced erosion test of Senay and Levine (anti-ulcer activity). It is filed as in vivo. As to conditions: decrease in ulcer formation as percentage of control score, rats, oral. As to the method: Anti-ulcer activity was determined by the stress-induced erosion test of Senay and Levine, Proc. Soc. Exp. Biol. Med., 124, 1221-3 (1967). The procedure used was as follows.
Male rats, weighing between 80 and 120 gms. were fasted overnight with water ad lib. The rats were then divided into groups of six and dosed orally with the test drug in the form of a solution or with the vehicle alone, 0.5% carboxymethylcellulose, in a volume of 10ml/kg.
After 30 minutes the rats were inserted into aluminium restraining tubes measuring 1⁵/₈ inches in diameter by 5 inches and placed in the cold (4±1°C) for 3 hours. Immediately after cold exposure the rats were killed with intracranial alcohol and their stomachs excised and opened along the greater curvature. Each stomach was washed gently free of contents with warm tap water and pinned out on a board. The condition of the gastric mucosa was then scored from 0 to 6 on the following scale:
The maximum possible score for each animal was 6 and for the group 36. Decrease in ulcer formation was calculated as a percentage of the control score, i.e. [formula] The statistical significance of the effect is assessed by Student's t-test.

A short description of assay [1]: antisecretory activity, test of Shay, Sun and Gruenstein. The settings on record: in vivo.
The mark [2] stands for this setting: at 10⁻⁴M, read-out: % Inhibition to stimulation by: DBcAMP.
The mark [3] stands for this setting: at 10⁻⁴M, read-out: % Inhibition to stimulation by: K⁺.

Where two headings read alike, the source gives them in different places.

T1 sequence (P27112 whole entry): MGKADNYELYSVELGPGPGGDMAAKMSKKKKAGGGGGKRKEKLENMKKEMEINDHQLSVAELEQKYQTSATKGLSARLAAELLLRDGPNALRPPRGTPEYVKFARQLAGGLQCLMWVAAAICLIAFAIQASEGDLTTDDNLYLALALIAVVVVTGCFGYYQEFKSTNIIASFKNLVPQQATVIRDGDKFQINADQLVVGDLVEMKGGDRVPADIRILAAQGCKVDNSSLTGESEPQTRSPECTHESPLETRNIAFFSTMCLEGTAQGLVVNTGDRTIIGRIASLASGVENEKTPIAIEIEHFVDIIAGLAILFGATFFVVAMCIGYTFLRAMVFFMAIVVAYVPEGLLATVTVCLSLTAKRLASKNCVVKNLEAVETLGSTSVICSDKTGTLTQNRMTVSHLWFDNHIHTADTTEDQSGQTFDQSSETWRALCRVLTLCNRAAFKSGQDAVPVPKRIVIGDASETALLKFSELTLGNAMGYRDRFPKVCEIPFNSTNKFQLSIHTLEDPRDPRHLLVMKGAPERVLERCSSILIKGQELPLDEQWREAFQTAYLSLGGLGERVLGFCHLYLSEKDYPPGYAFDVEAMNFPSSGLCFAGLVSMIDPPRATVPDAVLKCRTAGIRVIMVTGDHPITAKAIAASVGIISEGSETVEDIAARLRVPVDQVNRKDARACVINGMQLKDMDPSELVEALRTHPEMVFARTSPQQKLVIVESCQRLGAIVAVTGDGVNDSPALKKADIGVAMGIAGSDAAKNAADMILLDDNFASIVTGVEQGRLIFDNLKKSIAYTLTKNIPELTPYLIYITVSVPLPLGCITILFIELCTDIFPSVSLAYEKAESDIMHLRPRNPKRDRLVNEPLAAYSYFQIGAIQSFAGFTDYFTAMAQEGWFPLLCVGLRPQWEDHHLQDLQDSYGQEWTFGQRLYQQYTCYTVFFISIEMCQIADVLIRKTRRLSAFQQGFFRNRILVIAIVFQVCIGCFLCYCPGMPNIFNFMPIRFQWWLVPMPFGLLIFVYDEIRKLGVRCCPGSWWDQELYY
T1 sequence (P18597 whole entry partner): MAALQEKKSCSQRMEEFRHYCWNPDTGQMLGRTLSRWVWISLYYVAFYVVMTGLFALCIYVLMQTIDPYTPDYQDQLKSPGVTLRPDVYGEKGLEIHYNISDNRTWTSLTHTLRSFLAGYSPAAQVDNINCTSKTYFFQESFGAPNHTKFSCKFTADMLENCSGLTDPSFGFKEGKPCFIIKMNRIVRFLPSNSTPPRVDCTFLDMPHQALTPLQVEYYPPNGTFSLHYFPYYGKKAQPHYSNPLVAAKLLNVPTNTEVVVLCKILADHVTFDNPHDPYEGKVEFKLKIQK

For `CCc1ccc(-c2cn3c(nc4ccccc43)s2)nc1` [Example 27, 2-(2-(5-Ethylpyridyl))thiazolo[3,2-a]benzimidazole], the inhibition at 100 µM at H⁺/K⁺ ATPase (setting [2]) came to 56%; at H⁺/K⁺ ATPase (setting [3]), 142%.

`c1ccc(C2Cn3c(nc4ccccc43)S2)cc1` (centres unmarked) [Example 3, 2,3-Dihydro-2-phenylthiazolo[3,2-a]benzimidazole] displayed an Inhibition with stress-induced erosion (Dose 100 mg/kg) of 74%.

For the compound `Cc1ccc(C2Cn3c(nc4cc(Cl)c(Cl)cc43)S2)cn1` (centres unmarked) [Example 6, 6,7-Dichloro-2,3-dihydro-2-(6-methylpyrid-3-yl)thiazolo-[3,2-a]benzimidazole], the inhibition at 100 µM on H⁺/K⁺ ATPase (setting [2]) was 90%; at H⁺/K⁺ ATPase (setting [3]) it was 187%.

Consider `Cc1cc2nc3n(c2cc1C)CC(c1ccccn1)S3` (centres unmarked) [Example 9, 2,3-Dihydro-6,7-dimethyl-2-(2-pyridyl)thiazolo[3,2-a]-benzimidazole], for which the Antisecretory activity entry in assay [1] is recorded as “particularly active”. In the assay on stress-induced erosion (Dose 100 mg/kg), this compound came in with an Inhibition of 82%.

Turning to `Clc1cc2nc3n(c2cc1Cl)CC(c1ccccn1)S3` (centres unmarked) [Example 8, 6,7-Dichloro-2,3-dihydro-2-(2-pyridyl)thiazolo[3,2-a]-benzimidazole], the inhibition at 100 µM at H⁺/K⁺ ATPase (setting [2]) worked out at 50.5%.

For “2,3-Dihydro-6-methyl-2-(2-pyridyl)thiazolo[3,2-a]-benzimidazole-1-oxide and 2,3-Dihydro-7-methyl-2-(2-pyridyl)thiazolo[3,2-a]benzimidazole-1-oxide [Example 10]”, in assay [1], the Antisecretory activity result is on record as “particularly active”.

With “6-Chloro-2,3-dihydro-2-(2-pyridyl)thiazolo[3,2-a]-benzimidazole-1-oxide and 7-chloro-2,3-dihydro-2-(2-pyridyl)-thiazolo[3,2-a]benzimidazole-1-oxide [Example 18]”, the Antisecretory activity result in assay [1] was “particularly active”.

Consider `c1ccc(C2Cn3c(nc4ccccc43)S2)nc1` (centres unmarked) [Example 1, 2,3-Dihydro-2-(2-pyridyl)thiazolo[3,2-a]benzimidazole], for which the Antisecretory activity entry in assay [1] is on record as “particularly active”. The results for the Inhibition with stress-induced erosion (Dose 30 mg/kg) and in the assay with stress-induced erosion (Dose 100 mg/kg) were 86% and 75%, respectively.

Take `c1ccc(-c2cccc(-c3cn4c(nc5ccccc54)s3)n2)cc1` [Example 37, 2-[2-(6-Phenylpyridyl)]thiazolo[3,2-a]benzimidazole]: the inhibition at 100 µM on H⁺/K⁺ ATPase (setting [2]) stood at 22%; on H⁺/K⁺ ATPase (setting [3]), 381%.

For “2,3-Dihydro-6-methyl-2-(2-pyridyl)thiazolo[3,2-a]-benzimidazole and 2,3-Dihydro-7-methyl-2-(2-pyridyl)-thiazolo [3,2-a]benzimidazole [Example 7]”, the Antisecretory activity result in assay [1] was “particularly active”.

On to `Cc1cc2nc3n(c2cc1C)CC(c1ccccn1)[S+]3[O-]` (centres unmarked) [Example 13, 2,3-Dihydro-6,7-dimethyl-2-(2-pyridyl)thiazolo[3,2-a]-benzimidazole-1-oxide], for which the Antisecretory activity entry in assay [1] was “particularly active”. The inhibition at 100 µM on H⁺/K⁺ ATPase (setting [2]) was found to be 30%; at H⁺/K⁺ ATPase (setting [3]) it was 209%.

For `[O-][S+]1c2nc3ccccc3n2CC1c1ccccn1` (centres unmarked) [Example 2, 2,3-Dihydro-2-(2-pyridyl)thiazolo[3,2-a]benzimidazole-1-oxide], the Antisecretory activity result in assay [1] was “particularly active”. In addition, the values for the inhibition at 100 µM at H⁺/K⁺ ATPase (setting [2]) and on H⁺/K⁺ ATPase (setting [3]) were 74% and 91%, respectively. Further, the inhibition at 10 µM on H⁺/K⁺ ATPase (read-out: % Inhibition to stimulation by: DBcAMP) was determined as 73%; on H⁺/K⁺ ATPase (read-out: % Inhibition to stimulation by: K⁺), 26%.

Turning to “6-Ethoxy-2-(2-pyridyl)thiazolo[3,2-a]-benzimidazole and 7-ethoxy-2-(2-pyridyl)thiazolo[3,2-a]benzimidazole [Example 24]”, on H⁺/K⁺ ATPase (at 10⁻⁴M, 100 µM), the “% Inhibition to stimulation by: DBcAMP” value was 68% at 10⁻⁴M and the “% Inhibition to stimulation by: K⁺” value amounted to 162% at 10⁻⁴M.
